Data on one molecule can be found in patent US7863242B2, “Compositions for down-regulation of CCR5 expression and methods of use thereof” (priority 2003, dated 2011).

Series [1] can be described thus: Tolerability of Rapamycin in HIV infected volunteers. Format: in vivo, human. Conditions: 2 mg/day after 6 mg loading dose, 28 days. On the procedure: To assess the expression activity of CCR5 and its effects on levels of CCR5 receptors in vivo, an open-labeled, non-randomized proof of concept trial was performed in which 8 volunteers with established HIV infection were given 2 mg/day of Rapamycin, following a 6 mg loading dose, for 28 days. Peripheral blood for determining expression levels of CCR5 was obtained at the screening visit, days 7, 14 and 28 of the Rapamycin dosing, and at day 42 (which was two weeks following the last dose of Rapamycin).

The next series has as its system HIV-1 SF 162. Briefly: HIV-1 SF 162 replication in monocyte-derived macrophages. Conditions: Human immunodeficiency virus 1, Macrophage; RAPA at 0.01 nM, additional experiment; read-out: inhibition of HIV-1 SF 162 in MDMs. Format: cell-based. On the procedure: (§1) For infection of PBMCs, fresh donor PBMCs were cultured for 7 days in medium containing IL-2. On day 7, cells were exposed to the virus for 3 h. Nonadsorbed virus was removed by washing cells with PBS three times. Infected cells were cultured in IL-2 medium. Infection of MDMs was carried out as described before (Perno, 1993). Unless otherwise indicated, PBMCs were infected by using an moi of 0.001, and MDM were infected by using an moi of 0.002. Virus growth was monitored in culture supernatants by measuring p24 antigen levels by ELISA (NEN) or by measuring viral RT activity in an RT assay (Willey, 1988).
To this end, donor monocytes were cultured for 5 days in the presence of RAPA. On day 5, cells were infected with HIV-1 ADA. Infected cells were cultured in the presence of RAPA for an additional 14 days. Virus production was measured on the culture supernatants on days 7, 10, and 14 after infection. Cell viability was measured by the MTT assay at the end of the experiment.

Another series has as its system MIP-1β. Kind of series: Extracellular MIP-1β level in PBMC culture supernatants (ELISA). Format: cell-based, human. Particulars: for increase of MIP-1β protein versus untreated control: day 10. On the procedure: Levels of the β-chemokines MIP-1α, MIP-1β, and RANTES were measured in culture supernatants by using ELISA kits (R & D Systems).
RAPA Increases Extracellular Levels of MIP-1α and MIP-1β in PBMC Cultures: Because lymphocytes and monocytes cultured in the presence of RAPA presented reduced CCR5 RNA and protein levels, the levels of the CCR5 ligands MIP-1α, MIP-1β, and RANTES were measured in supernatants of RAPA-treated PBMC cultures. […] On day 10, percentage of cells expressing CCR5 and supernatant chemokine content were determined for each donor. […] Among the different donors, RAPA-treated cultures contained 6-39-fold higher levels of MIP-1α than untreated cultures. Similarly, MIP-1β levels were increased 17-47-fold in the presence of RAPA as compared with untreated controls. […] Chemokine results obtained in two of the donors, showing disparity of RANTES levels in the presence of RAPA, are depicted in FIG. 3A.
The above results were confirmed by evaluating the effect of RAPA on the secretion of MIP-1β, a chemokine that uses CCR5 as its only receptor, in cultures of PBMCs derived from a donor homozygous for the Δ32 mutation in the CCR5 gene. In this experimental setting, in which MIP-1β cannot be endocytosed by CCR5, the effect of RAPA on MIP-1β protein levels provided information regarding the mechanism by which RAPA increases β-chemokine levels. To this end, stimulated PBMCs from two normal donors and from a CCR5-null donor were cultured in the presence of RAPA as in previous experiments. MIP-1β levels in supernatants were evaluated on day 10. Representative results obtained in one of the normal donors are shown in FIG. 3B next to the results obtained on the CCR5-null donor.

In the next series the test system is R5 strains of HIV-1. Kind of series: Replication of a panel of five R5 strains of HIV-1 in PBMCs. Format: cell-based. Conditions: Human immunodeficiency virus 1, PBMC. On the procedure: Infectivity Assays: The following viruses were used in infection experiments: HIV-1 IIIb, HIV-1 ADA, HIV-1 BaL, HIV-1 JRFL, HIV-1 JRCSF, and HIV-1 SF162. HIV-1 IIIb is a T cell line-adapted lab strain that uses CXCR4 for entry into cells, whereas the rest are isolates that use CCR5. Viruses were obtained from the National Institutes of Health AIDS Research and Reference Reagent Program.
as §1
RAPA at 0.01 nM inhibited R5 HIV-1 by 10-64% depending on the strains, whereas 0.1 nM RAPA inhibited virus replication by 15-85%. At 1 nM RAPA, all R5 viruses were inhibited by ≧90%.

The next series has as its system CCR5. Kind of series: CCR5 cell-surface expression on maturing monocytes (CD14-gated flow cytometry). Particulars: monocytes cultured 5 days, three donors. Format: cell-based, human.

Where only a bound is given, the exact number is not on record here.

On to `CO[C@H]1C[C@@H]2CC[C@@H](C)[C@@](O)(O2)C(=O)C(=O)N2CCCC[C@H]2C(=O)O[C@H]([C@H](C)C[C@@H]2CC[C@@H](O)[C@H](OC)C2)CC(=O)[C@H](C)/C=C(\C)[C@@H](O)[C@@H](OC)C(=O)[C@H](C)C[C@H](C)/C=C/C=C/C=C/1C` [RAPA, rapamycin], for which, in series [1], the tolerability entry was “well-tolerated”. Besides, the inhibition at 10 pM was 45% in the series with HIV-1 SF 162 and 10 to 64% in the series with R5 strains of HIV-1 (read-out: inhibition of R5 HIV-1, depending on the strains). For the same molecule, the “increase of MIP-1β protein versus untreated control” value in the series with MIP-1β (CCR5-null donor (Δ32 homozygous)) was 1.2 fold; in the series on MIP-1β (normal donor), 9.3 fold. Also, the “MIP-1β level versus untreated controls” value with MIP-1β (day 10, four donors) is 17-47 fold. Moreover, the inhibition at 0.0001 µM in the series with R5 strains of HIV-1 (read-out: inhibition of R5 HIV-1 replication) was 15 to 85%. Besides, the inhibition at 0.001 µM with R5 strains of HIV-1 (read-out: inhibition of all R5 viruses) was not below 90%. In addition, the “concentrations giving consistent down-regulation of CCR5 surface expression on monocytes” value with CCR5 was not below 10 pM.
